Reference: paper PMC8708390, “Fatty Acid Modification of the Anticancer Peptide LVTX-9 to Enhance Its Cytotoxicity against Malignant Melanoma Cells” (Toxins, 2021)
Where a SMILES comes first, the peptide text is derived from it. The star is where a group is joined. Arachidoyl = CCCCCCCCCCCCCCCCCCCC(=O)*; Stearoyl = CCCCCCCCCCCCCCCCCC(=O)*; Palmitoyl = CCCCCCCCCCCCCCCC(=O)*; Myristoyl = CCCCCCCCCCCCCC(=O)*; Lauroyl = CCCCCCCCCCCC(=O)*

Legend:
[1] = RP-HPLC retention time as measure of hydrophobicity; type: physicochemical; conditions: chromatographic, Vydac C18 300 Å 4.6 × 250 mm, 1.0 mL/min, gradient 30-100% acetonitrile/0.1% TFA, 215 nm, column 25 ± 5 °C; maximum height of peak
Method: Peptides were synthesized using the Fmoc SPPS methods. Briefly, the peptide LVTX-9 (AC-[…]-amide) was prepared on Rink Amide AM resin at a 0.2 mmol scale. A 4-fold excess of the Fmoc-protected amino acids was coupled with the Rink Amide AM resin using HCTU and HOBT as the activating agents in 5% NMM/DMF. After the synthesis of LVTX-9, the N-terminal Fmoc group was removed using 20% piperidine. As in the previous steps, a series of fatty acids (C12-C20) was activated in HCTU and HOBT using 5% NMM/DMF, and coupled to peptidyl resin for 2 h. Peptides were cleaved using trifluoroacetic acid (TFA)/thioanisole (TIS)/anisole (95:3:2 (v/v)) for 2.5 h, and the collected lysate was precipitated in cold diethyl ether three times. The precipitate was air-dried naturally. Next, the obtained crude products were purified using RP-HPLC (C18, 4.6 mm × 250 mm) on the basis of a 0.1% TFA/acetonitrile gradient from 30% to 100% in 46 min. Then, we collected the eluted peptides and determined the molecular mass using MALDI-TOF MS (AB, SCIEX, Waltham, MA, USA).
Figure 2 Purification and identification of five lipopeptides using RP-HPLC and MALDL-TOF MS: The purification of (A) LVTX-9-C12, (B) LVTX-9-C14, (C) LVTX-9-C16, (D) LVTX-9-C18, and (E) LVTX-9-C20 was performed using RP-HPLC (column, Vydac, C18, 300 Å, 4.6 × 250 mm). The lipopeptides were separated at a flow rate of 1.0 mL/min under a gradient of 30–100% acetonitrile/0.1% TFA. The elution of lipopeptides was monitored at 215 nm. Identification of (F) LVTX-9-C12, (G) LVTX-9-C14, (H) LVTX-9-C16, (I) LVTX-9-C18, and (J) LVTX-9-C20 by MALDI-TOF MS, respectively. The red star (*) represents the target peak. […]
Table S1. Purification gradient of peptides.
Time (min) Flow Rate (mL/min) A% B%
Wavelength: 215 nm/280 nm, column temperature: 25 ± 5 ℃, A: ddH2O (0.1% TFA), B: acetonitrile
(1 picture or pasted object on this page, not shown here)

[2] = Dynamic light scattering (hydrodynamic size, PDI, zeta potential); type: physicochemical; conditions: 100 µM in ultrapure water, 25 °C, repeated three times
Method: (§1) Dynamic light scattering (DLS) of Zetasizer Nano ZSP (Malvern Instruments, Malvern, UK) apparatus was used to determine the hydrodynamic size and zeta potential of LVTX-9 and LVTX-9-C18. The peptides concentrations were diluted to 100 µM with ultrapure water with a final volume of 1 mL. The procedure ran at 25 °C, with each experiment repeated three times. The secondary structures of LVTX-9 and LVTX-9-C18 were determined to be in line with the previous protocol. The peptide concentrations were then diluted to 100 µM with ultrapure water and 100 mM of SDS was added in a final volume of 250 μL. The procedure was carried out at 25 °C. CD spectra were recorded between 180 nm and 280 nm on a Jasco J-815 CD spectrometer.

[3] = tested on: B16-F10 tumor spheroids; assay: Toxicity in 3D tumor spheroids; type: cell-based, mouse; conditions: 20 μM, 3 days
Method: To further study the toxicity of LVTX-9 and LVTX-9-C18 in vitro, B16-F10 tumor spheroids, as 3D tumor models, were cultured according to protocols in the literature. Briefly, B16-F10 cells were seeded into an ultra-low attachment, 96-well, round-bottom plate (Corning) and cultured at 37 °C for 3–4 days. Then, the B16-F10 tumor spheroids were treated with 50 or 25 μM of LVTX-9 and 20 or 10 μM of LVTX-9-C18 in the RPMI-1640 supplied with 10% serum for 3 days. Subsequently, images were taken on days 0 and 3, and the cell viability was measured using a CellTiter-Glo 3D Cell Viability Assay (G9683).

[4] = tested on: B16-F10 cells; assay: LDH leakage assay; type: cell-based, mouse; conditions: 12.5 μM, 24 h, absorbance 490 nm, n = 3
Method: At first, the B16-F10 cells were cultured in 96-well plates for 24 h at approximately 2 × 10^3 cells/well. Subsequently, the cells were treated for 24 h with LVTX-9 or LVTX-9-C18 with a series of concentration gradients. LDH leakage detection was detected using an LDH Cytotoxicity Assay Kit according to the manufacturer’s instructions (Beyotime, Shanghai, China. C0017). The absorption was measured using an Absorbance Microplate Reader (BioTek Instruments) at 490 nm. The LDH release (%) of peptides was calculated by GraphPad prism 5.0.

[5] = tested on: B16-F10 cells; assay: Colony formation assay; type: cell-based, mouse; conditions: 1 μM, 7 days, crystal violet, mean ± SD, n = 3, control group 51 ± 12.0, p = 0.0198 vs control
Method: To detect the proliferation of B16-F10 cells treated with LVTX-9 and LVTX-9-C18 at low concentrations, digested cells were counted using a Cellometer K2 and seeded into a 12-well plate with approximately 100 cells per well. After 36 h, cells were treated with LVTX-9 (10 μM) and LVTX-9-C18 (1 μM), then incubated for 7 days at 37 °C in a humidified 5% CO2 atmosphere. Visible colonies were stained with 0.5% crystal violet and photographically recorded. The colony formation rates were calculated, and curves were manufactured by GraphPad prism 5.0.

[6] = tested on: B16-F10 cells; assay: CCK-8 cell viability assay, B16-F10 cells; type: cell-based, mouse; conditions: 1 μM
Method: Mouse skin melanoma cells (B16-F10) were cultured in RPMI-1640 (Gibco), and mouse fibroblast cells (L-929), human lung carcinoma cells (A549), mouse breast cells (4T1), human hepatocarcinoma cells (HepG2), and human cervical carcinoma cells (Hela) were cultured in Dulbecco’s Modified Eagle Medium (DMEM, Gibco). All culture medium contained 10% fetal bovine serum (serum, Gibco), 100 U/mL of penicillin, and […] of streptomycin at 37 °C with 5% CO2.
Cell viability was quantified using a CCK-8 assay. At first, cells were seeded into a 96-well plate at approximately 2 × 10^3 cells/well. The following day, we created a 2-fold dilution series of each peptide using fresh medium (with or without 10% serum) for the treated cells, and cell viability was detected at 450 nm via a CCK-8 assay using an Absorbance Microplate Reader (BioTek Instruments, Winooski, VT, USA) following 24 h of drug incubation. The activity curves and IC50 values of the peptides were visualized using GraphPad prism 5.0.

[7] = tested on: B16-F10 cells; assay: Trypan blue staining; type: cell-based, mouse; conditions: 5 μM, 24 h, 0.04% trypan blue 4 min
Method: B16-F10 cells were seeded into a 48-well plate (2 × 10^3 cells/well) for 24 h and treated with LVTX-9 (50 μM) and LVTX-9-C18 (5 μM) for 24 h. The cells were washed with PBS gently and stained with 0.04% Trypan blue for 4 min. Dead cells were stained blue.

[8] = tested on: B16-F10 cells; assay: Scanning electron microscopy of cell membrane; type: cell-based, mouse; conditions: 5 μM, 24 h
Method: The morphologic changes of the cell membrane of B16-F10 cells treated with peptides were observed by SEM [14]. The cells were seeded on coverslips and placed into a six-well plate, then treated with LVTX-9 (50 μM) and LVTX-9-C18 (5 μM) for 24 h. After incubation, the B16-F10 cells were washed with sterile PBS gently three times and fixed with 2 mL of 2.5% glutaraldehyde solution in each well for 4 h at room temperature. Then, the fixed cells were dehydrated with a series of ethanol concentrations. We dried the samples with a Critical Point Dryer and coated them with gold plating before observation. A scanning electron microscope (Hitachi Su8010, Tokyo, Japan) was used to examine the prepared samples.

[9] = Circular dichroism secondary structure; type: physicochemical; conditions: 100 µM, 25 °C, 180-280 nm
Method: as §1

SMILES: CCCCCCCCCCCC(=O)N[C@@H](C)C(=O)N[C@@H](CO)C(=O)N[C@H](C(=O)NCC(=O)N[C@@H](C)C(=O)N[C@@H](CC(C)C)C(=O)N[C@H](C(=O)N[C@@H](CCC(N)=O)C(=O)N[C@@H](CCCCN)C(=O)N[C@@H](C)C(=O)N[C@H](C(=O)N[C@@H](C)C(=O)N[C@@H](CC(C)C)C(=O)N[C@H](C(=O)N[C@@H](CCCCN)C(=O)N[C@@H](C)C(=O)N[C@@H](CCCCN)C(=O)N[C@@H](C)C(=O)N[C@@H](C)C(N)=O)[C@@H](C)CC)[C@@H](C)CC)[C@@H](C)CC)[C@@H](C)CC [LVTX-9-C12] (Lauroyl-ASIGALIQKAIALIKAKAA-NH2)
- TR (retention time, RP-HPLC; indicates the hydrophobicity of the peptides) [1]: 36.52 min

SMILES: CCCCCCCCCCCCCCCC(=O)N[C@@H](C)C(=O)N[C@@H](CO)C(=O)N[C@H](C(=O)NCC(=O)N[C@@H](C)C(=O)N[C@@H](CC(C)C)C(=O)N[C@H](C(=O)N[C@@H](CCC(N)=O)C(=O)N[C@@H](CCCCN)C(=O)N[C@@H](C)C(=O)N[C@H](C(=O)N[C@@H](C)C(=O)N[C@@H](CC(C)C)C(=O)N[C@H](C(=O)N[C@@H](CCCCN)C(=O)N[C@@H](C)C(=O)N[C@@H](CCCCN)C(=O)N[C@@H](C)C(=O)N[C@@H](C)C(N)=O)[C@@H](C)CC)[C@@H](C)CC)[C@@H](C)CC)[C@@H](C)CC [LVTX-9-C16] (Palmitoyl-ASIGALIQKAIALIKAKAA-NH2)
- TR (retention time, RP-HPLC; indicates the hydrophobicity of the peptides) [1]: 40.21 min

SMILES: CCCCCCCCCCCCCCCCCCCC(=O)N[C@@H](C)C(=O)N[C@@H](CO)C(=O)N[C@H](C(=O)NCC(=O)N[C@@H](C)C(=O)N[C@@H](CC(C)C)C(=O)N[C@H](C(=O)N[C@@H](CCC(N)=O)C(=O)N[C@@H](CCCCN)C(=O)N[C@@H](C)C(=O)N[C@H](C(=O)N[C@@H](C)C(=O)N[C@@H](CC(C)C)C(=O)N[C@H](C(=O)N[C@@H](CCCCN)C(=O)N[C@@H](C)C(=O)N[C@@H](CCCCN)C(=O)N[C@@H](C)C(=O)N[C@@H](C)C(N)=O)[C@@H](C)CC)[C@@H](C)CC)[C@@H](C)CC)[C@@H](C)CC [LVTX-9-C20] (Arachidoyl-ASIGALIQKAIALIKAKAA-NH2)
- TR (retention time, RP-HPLC; indicates the hydrophobicity of the peptides) [1]: 43.06 min

SMILES: CCCCCCCCCCCCCC(=O)N[C@@H](C)C(=O)N[C@@H](CO)C(=O)N[C@H](C(=O)NCC(=O)N[C@@H](C)C(=O)N[C@@H](CC(C)C)C(=O)N[C@H](C(=O)N[C@@H](CCC(N)=O)C(=O)N[C@@H](CCCCN)C(=O)N[C@@H](C)C(=O)N[C@H](C(=O)N[C@@H](C)C(=O)N[C@@H](CC(C)C)C(=O)N[C@H](C(=O)N[C@@H](CCCCN)C(=O)N[C@@H](C)C(=O)N[C@@H](CCCCN)C(=O)N[C@@H](C)C(=O)N[C@@H](C)C(N)=O)[C@@H](C)CC)[C@@H](C)CC)[C@@H](C)CC)[C@@H](C)CC [LVTX-9-C14] (Myristoyl-ASIGALIQKAIALIKAKAA-NH2)
- TR (retention time, RP-HPLC; indicates the hydrophobicity of the peptides) [1]: 36.15 min

SMILES: CCCCCCCCCCCCCCCCCC(=O)N[C@@H](C)C(=O)N[C@@H](CO)C(=O)N[C@H](C(=O)NCC(=O)N[C@@H](C)C(=O)N[C@@H](CC(C)C)C(=O)N[C@H](C(=O)N[C@@H](CCC(N)=O)C(=O)N[C@@H](CCCCN)C(=O)N[C@@H](C)C(=O)N[C@H](C(=O)N[C@@H](C)C(=O)N[C@@H](CC(C)C)C(=O)N[C@H](C(=O)N[C@@H](CCCCN)C(=O)N[C@@H](C)C(=O)N[C@@H](CCCCN)C(=O)N[C@@H](C)C(=O)N[C@@H](C)C(N)=O)[C@@H](C)CC)[C@@H](C)CC)[C@@H](C)CC)[C@@H](C)CC [LVTX-9-C18] (Stearoyl-ASIGALIQKAIALIKAKAA-NH2)
- PDI (hydrodynamic size, DLS) [2]: 0.64 ± 0.1369
- zeta potential ([2]; p = 0.0084): significantly higher than that of LVTX-9
- cell viability of B16-F10 tumor spheroids at 20 μM ([3]; CellTiter-Glo 3D Cell Viability Assay, n = 4, p < 0.0001): notably reduced the cell viability
- growth (volume) of B16-F10 tumor spheroids at 20 μM ([3]; RPMI-1640 with 10% serum, p = 0.0072): significantly suppressed
- LDH release at 12.5 μM [4]: ~ 40%
- colony number at 1 μM [5]: 26 ± 2.9
- cytotoxic effect on B16-F10 cells at 1 μM [6]: no significant cytotoxic effect
- trypan blue staining at 5 μM [7]: stained blue
- cell membrane morphology by SEM at 5 μM [8]: totally disorganized or even absent
- TR (retention time, RP-HPLC; indicates the hydrophobicity of the peptides) [1]: 41.89 min
- secondary structure (CD) in 100 mM of SDS ([9]; 100 mM SDS): α-helical conformation
- secondary structure (CD) in ultrapure water ([9]; ultrapure water): α-helical conformation
